Test results reported in patent publication US8716279B2, “Pharmaceutical compositions of clonazepam and method of use thereof” (Jazz Pharmaceuticals, Inc., priority 2006, dated 2014).
In brackets after ≈: the same amount, converted by molar mass.

What was measured:
[1] = Drug recovery, degradation and binding to nasal sheep mucosa; type: in vitro ADME
Experimental: (i) Drug recovery, degradation and binding to nasal sheep mucosa: The effect of drug recovery, degradation and binding to sheep nasal mucosa was determined. Briefly, a known surface area (approx. 1 cm^2) of sheep nasal mucosa was added into a glass vial containing a known concentration (10 μg/mL) of each drug prepared in the receiver fluid (10% ethanol in pH 6 buffer). The content of the vial was allowed to equilibrate at 37° C. over a period of 48 h. At 24 h intervals, a sample was removed and assayed via HPLC. The percentage of drug recovered was calculated using Equation 4: % drug recovered=(drug concentration at t=Y/drug concentration at t=Z)×100 (Equation 4)
where, Y=specific time point at 37° C. (in the presence of nasal sheep mucosa); and Z=specific time point at 37° C. (in the absence of nasal sheep mucosa).
In addition to the stability against heat degradation, the effect of drug binding or degradation in the presence of nasal sheep mucosa was also determined (Table 6).

[2] = Solubility of clonazepam in glycol ethers at 25° C.
Experimental: 10 mg of clonazepam was weighed into glass vials used in the Pfeiffer mono-dose spray system (Pfeiffer of America, Princeton, N.J.). Four samples of each of four solvents were prepared as follows. 130-μL of each solvent was pipetted into the vial, which was then stoppered with a black chlorobutyl rubber stopper.
The vials were removed from the chamber, placed inside polyethylene centrifuge vials, and centrifuged for 2 minutes at 5000 rpm. 10 μL of liquid was then sampled from each vial, accurately weighed, and diluted with 1 mL of acetonitrile. The drug concentration was analyzed by UV using an Agilent HPLC system with no column, 10 μL injection volume, acetonitrile mobile phase, 0.3 mL/min and UV detection at 350 nm.

[3] = Solubilities of clonazepam in glycol ethers at 3 temperatures
Experimental: The vials were then centrifuged at −5° C. and 5° C. for the −15° C. and 5° C. samples, respectively, at 5000 rpm for 2 minutes.

[4] = Solubilities of clonazepam in solvent/water solutions (glycol ether + pH6.8 buffered water, 25° C.); type: physicochemical; settings: Di (ethyleneglycol) diethyl ether, 20% solvent / 80% pH6.8 buffered water
Experimental: The vials were stored at 25° C. for approximately 1 day. Prior to sampling, the vials were centrifuged at 5000 rpm for 2 minutes at 23° C. The results are shown below; neat solvent solubilities from Example 11 are included for reference. Increased water content decreases solubility substantially.

[5] = qEEG mapping; type: in vivo; settings: human
Experimental: E. Electroencephalography (EEG) Methods: Drug and placebo are administered, for example, at a five-minute intravenous (i.v.) infusion. During 15 minutes following the beginning of the administration EEG is registered. The EEG is registered again at 30, 60, 90, 120, and 180 minutes. Subjects are typically in a quiet laboratory (soundproof and electrically shielded room). During acquisition of EEG measurements subjects recline in an armchair. Usually twenty-eight EEG leads (issued, for example, from a 10-20 system; Jasper, H. H., et al., “Studies of clinical and electrical responses to deep temporal stimulation in men with some considerations of functional anatomy,” Res Publ Assoc Res Nerv Ment Dis. 36:316-34 (1958); Japser, H. H., “Progress and problems in brain research,” J Mt Sinai Hosp N Y. 25(3):244-53 (1958)) are used for recording. An ear linked reference, as well as four artifact channels (detection of eye movement, muscle activity, and other potentials for artifacts) may be used. Silver-plated disc electrodes are attached to subject's scalp, for example, with quick drying collondion. Impedance (for example, of 2000-5000 ohms) is checked before each recording session. A calibration signal is used, before each subject is tested, in order to adjust all the recorded leads thus allowing the construction of EEG or event-related-potentials (ERP) maps. EEGs are taken under resting recording conditions (i.e., subjects are asked to relax with their eyes closed). An example of data analysis used is the method of Dago, et al. (Dago, K T, et al., “Statistical Decision Tree: a tool for studying pharmaco-EEG effects of CNS-active drugs,” Neuropsychobiology, 29(2):91-6 (1994)) which involves a statistical comparison of data obtained during active treatment versus placebo treatment. Typically, topographic mapping of mean EEG parameters and statistical evaluation of treatment effects is carried out in a selected number of healthy volunteers.
EEG profiles are determined for patients dosed intranasally with clonazepam compositions of the present invention. […]

For `O=C1CN=C(c2ccccc2Cl)c2cc([N+](=O)[O-])ccc2N1` [Clonazepam, 5-(2-chlorophenyl)-1,3-dihydro-7-nitro-2H-1,4-benzodiazepin-2-one], the “degree of binding or degradation in the presence of nasal sheep mucosa” value ([1]; 37° C.) was < 10%, the “drug recovered in the presence of nasal sheep mucosa” value ([1]; 37° C. over 48 h) was “greater than 95%” and the “Solubilities (mg/mL) of Clonazepam in Solvent/Water Solutions” value ([2]; 1,2-dimethyxoethane, 100% solvent / 0% water, 25° C. (neat solvent value from Example 11, included for reference)) was 39.3 mg/mL. The Solubility ([2]; in 1,2-dimethyxoethane, 25 C.) was 39.3 mg/mL (≈ 124 mM), the Solubility ([3]; in 1,2-dimethyxoethane, 5 C.) was 35.7 mg/mL (≈ 113 mM) and the Solubility ([3]; in 1,2-dimethyxoethane, −15 C.) was 35.2 mg/mL (≈ 111 mM). For the same compound, the Solubility ([3]; in Di (ethylene glycol) methyl ether, 5 C.) was 53.9 mg/mL (≈ 171 mM), the Solubility ([3]; in Di (ethylene glycol) methyl ether, −15 C.) was 58.1 mg/mL (≈ 184 mM) and the Solubility ([3]; in Di (ethyleneglycol) diethyl ether, 5 C.) was 18.5 mg/mL (≈ 58.6 mM). It also gave a Solubility ([3]; in Di (ethyleneglycol) diethyl ether, −15 C.) of 19.5 mg/mL (≈ 61.8 mM), a Solubility ([3]; in Diethylene glycol monoethyl ether, 5 C.) of 37.7 mg/mL (≈ 119 mM) and a Solubility ([3]; in Diethylene glycol monoethyl ether, −15 C.) of 43.3 mg/mL (≈ 137 mM). The “Solubilities (mg/mL) of Clonazepam in Solvent/Water Solutions” value [4] was 0.31 mg/mL, the “EEG changes from baseline” value ([5]; all three routes) was “increased delta and beta activity and decreased alpha and theta activity” and the “beta-1 relative power, time course of effects (post-hoc analysis)” value ([5]; intranasal administration) was “magnitude of effect similar to that from oral administration”. For the same compound, the “time after dosing at which the EEG pattern was noted” value ([5]; oral administration) was “approximately 2 hours”.
